Test results as given in US11104630B2, “Synthesis of mono-chlorinated acetophenone” (SIEGFRIED AG, priority 2017, dated 2021).

Experiment: Solubility of the starting material in the solvent
Format: physicochemical
Conditions: solvent MTBE, 20° C., until clear solution
Procedure: Solubility of the Starting Material in the Solvent
To 1 g of HAP is added 5 ml of solvent. The mixture is stirred in a water bath at 20° C. The solvent is further slowly added under stirring until a clear solution appears.
The amount of used solvent is noted.

CC(=O)c1cccc(O)c1 [HAP, 3-hydroxy-acetophenon]
Solvent in ml per g HAP: 9 ml per g HAP
